One experiment relates to HCT8. Description: Cell growth inhibition assay (Cell Titer Glo), HCT8. In kind it is cell-based. The note with it: Homo sapiens, HCT-8, 72 h; HCT8 colon; BRAF WT, KRAS G13D, PIK3CA E545K; 3 days; mean ± std; read-out: IC50 values, Single Agent. Here is the method:
(§1) Human colon tumor lines, Colo205, DLD1, HCC2998, HCT15, HCT8, HT29, KM-12, LS1034, LS174T, RKO, SW1463, SW480, SW837 and T84, and human breast tumor cell lines EFM19 and MDA-MB-175VII were cultured in RPMI 1640 medium containing 10% fetal bovine serum (FBS).
(§2) All cells were cultured for a minimum of 72 hours prior to cell plating. Cells were assayed in a 96-well tissue culture plate (NUNC 136102) of RPMI medium containing 10% FBS for all cells at 1,000 cells per well. […] ATP levels were determined by adding Cell Titer Glo® (Promega) according to the manufacturer's protocol. Briefly, Cell Titer Glo® was added each plate, incubated for 30 minutes then luminescent signal was read on the SpectraMax L plate reader with a 0.5 sec integration time.
(§3) Inhibition of cell growth was estimated after treatment with compound or combination of compounds for three days and comparing the signal to cells treated with vehicle (DMSO). Cell growth was calculated relative to vehicle (DMSO) treated control wells. […]
(§4) The combination effects on the response scale were quantified by Excess Over Highest Single Agent (EOHSA) based on the concept of nonlinear blending as described in detail by Peterson and Novick (2007) and Peterson (2010) [(2;3) [Peterson and Novick, 2007; Peterson, 2010]. […]

Another experiment concerns HT29. Description: Cell growth inhibition assay (Cell Titer Glo), HT29. Type of experiment: cell-based, Human. Here is the method:
as §1, §2, §3, §4

The next experiment deals with HCT15. As to the kind of experiment: Cell growth inhibition assay (Cell Titer Glo), HCT15. The note with it: Homo sapiens, HCT-15, 72 h; HCT15 colon; BRAF WT, KRAS G13D, PIK3CA D549N, E545K; 3 days; mean ± std; read-out: IC50 values, Single Agent. Type of experiment: cell-based. The procedure: as §1, §2, §3, §4
Another experiment relates to LS1034. Description: Cell growth inhibition assay (Cell Titer Glo), LS1034. The note with it: Homo sapiens, LS-1034, 72 h; LS1034 colon; BRAF WT, KRAS A146T, PIK3CA WT; 3 days; read-out: IC50 values, Single Agent. Type of experiment: cell-based. The procedure: as §1, §2, §3, §4
Another experiment has as its system KM-12. As to the kind of experiment: Cell growth inhibition assay (Cell Titer Glo), KM-12. In kind it is cell-based. The note with it: Homo sapiens, KM12, 72 h; KM-12 colon; BRAF WT, KRAS WT, PIK3CA WT; 3 days; mean ± std; read-out: IC50 values, Single Agent. The procedure:
as §1, §2, §3, §4

The next experiment concerns T84. As to the kind of experiment: Cell growth inhibition assay (Cell Titer Glo), T84. Type of experiment: cell-based. The note with it: Homo sapiens, 72 h; T84 colon; BRAF WT, KRAS G13D, PIK3CA E542K; 3 days; read-out: IC50 values, Single Agent. Here is the method:
as §1, §2, §3, §4

The subject of experiment [1] is 10 colon lines without BRAF V600E mutation. As to the kind of experiment: Cell growth inhibition assay (Cell Titer Glo), colon lines without BRAF V600E mutation. Type of experiment: cell-based. The note with it: Homo sapiens; the other 10 colon lines without BRAF V600E mutation (KRAS wild type or mutated); read-out: IC50s, compound alone. Here is the method: All cells were cultured for a minimum of 72 hours prior to cell plating. […] Cells were incubated in the presence of compounds for 3 days. ATP levels were determined by adding Cell Titer Glo® (Promega) according to the manufacturer's protocol. Briefly, Cell Titer Glo® was added each plate, incubated for 30 minutes then luminescent signal was read on the SpectraMax L plate reader with a 0.5 sec integration time.
(§5) Inhibition of cell growth was estimated after treatment with compound or combination of compounds for three days and comparing the signal to cells treated with vehicle (DMSO). Cell growth was calculated relative to vehicle (DMSO) treated control wells.
(§6) In general, a CI value <0.9, between 0.9 and 1.1, or >1.1 indicates synergy, additivity and antagonism, respectively. […]
(§7) EOHSA values are defined as increases in improvement (here, in ‘percentage points’ (ppts) difference) produced by the combination over the best single agent at its component dose level for the combination. For single agent and combination treatments, cells were exposed to compounds at a fixed-dose-ratio, and dose response curves were fit to the experimental data and analyzed using regression models. At specified total dose levels of IC50 along the dose response curve, the dose combination (corresponding to IC50) was determined for making EOHSA statistical inferences.

A further experiment concerns EFM19. Description: Cell growth inhibition assay (Cell Titer Glo), EFM19. Type of experiment: cell-based. The note with it: Homo sapiens, EFM-19, 72 h; EFM19 breast; BRAF WT, KRAS WT, PIK3CA WT; 3 days; mean ± std; read-out: IC50 values, Single Agent. Here is the method: as §1, §2, §3, §4
In a further experiment the test system is RKO colon line. Description: Cell growth inhibition assay (Cell Titer Glo), RKO. Type of experiment: cell-based. The note with it: Homo sapiens. Here is the method:
as §1
(§8) All cells were cultured for a minimum of 72 hours prior to cell plating. Cells were assayed in a 96-well tissue culture plate (NUNC 136102) of RPMI medium containing 10% FBS for all cells at 1,000 cells per well. Approximately 24 hours after plating, cells were exposed to ten, three-fold serial dilutions of compound or the combination of the two agents at a constant molar to molar ratio of 1:10 Compound A to Compound B in RPMI media containing 10% FBS. Cells were incubated in the presence of compounds for 3 days. ATP levels were determined by adding Cell Titer Glo® (Promega) according to the manufacturer's protocol. Briefly, Cell Titer Glo® was added each plate, incubated for 30 minutes then luminescent signal was read on the SpectraMax L plate reader with a 0.5 sec integration time.
as §5
In general, a CI value <0.9, between 0.9 and 1.1, or >1.1 indicates synergy, additivity and antagonism, respectively. In general, the smaller the CI number, the greater is the strength of synergy.
as §7, with “The combination effects on the response scale were quantified by Excess Over Highest Single Agent (EOHSA) based on the concept of nonlinear blending as described in detail by Peterson and Novick (2007) and Peterson (2010) [(2;3) [Peterson and Novick, 2007; Peterson, 2010]. EOHSA values” for “EOHSA values”

The next experiment deals with HCC2998. Description: Cell growth inhibition assay (Cell Titer Glo), HCC2998. Particulars: Homo sapiens, HCC 2998, 72 h; HCC2998 colon; BRAF WT, KRAS A146T, PIK3CA WT; 3 days; read-out: IC50 values, Single Agent. Type of experiment: cell-based. The procedure: as §1, §2, §3, §4
For another experiment, the system named is SW480. As to the kind of experiment: Cell growth inhibition assay (Cell Titer Glo), SW480. In kind it is cell-based. The note with it: Homo sapiens, 72 h; SW480 colon; BRAF WT, KRAS G12C, PIK3CA WT; 3 days; mean ± std; read-out: IC50 values, Single Agent. Here is the method:
as §1, §2, §3, §4

The subject of a further experiment is SW837. As to the kind of experiment: Cell growth inhibition assay (Cell Titer Glo), SW837. Type of experiment: cell-based. Particulars: Homo sapiens, 72 h; SW837 colon; BRAF WT, KRAS G12C, PIK3CA WT; 3 days; read-out: IC50 values, Single Agent. The procedure:
as §1, §2, §3, §4

In another experiment the test system is DLD1. As to the kind of experiment: Cell growth inhibition assay (Cell Titer Glo), DLD1. In kind it is cell-based. Particulars: Homo sapiens, DLD-1, 72 h; DLD1 colon; BRAF WT, KRAS G13D, PIK3CA E545K, D549N; 3 days; read-out: IC50 values, Single Agent. Here is the method:
as §1, §2, §3, §4

In another experiment the test system is MDA-MB-175VII. As to the kind of experiment: Cell growth inhibition assay (Cell Titer Glo), MDA-MB-175VII. The note with it: Homo sapiens, 72 h; MDA-MB-175VII breast; BRAF WT, KRAS WT, PIK3CA H1049L; 3 days; mean ± std; read-out: IC50 values, Single Agent. Type of experiment: cell-based. Here is the method:
as §1, §2, §3, §4

For a further experiment, the system named is SW1463. As to the kind of experiment: Cell growth inhibition assay (Cell Titer Glo), SW1463. Type of experiment: cell-based. Particulars: Homo sapiens, 72 h; SW1463 colon; BRAF WT, KRAS G12C, PIK3CA WT; 3 days; read-out: IC50 values, Single Agent. Here is the method: as §1, §2, §3, §4
A further experiment has as its system Colo205. As to the kind of experiment: Cell growth inhibition assay (Cell Titer Glo), Colo205. Particulars: for IC50: Homo sapiens, COLO 205, 72 h, Colo205 colon, BRAF V600E, KRAS WT, PIK3CA WT, 3 days, mean ± std, read-out: IC50 values, Single Agent. In kind it is cell-based, Human. Here is the method: as §1, §8, §5, §6
The combination effects on the response scale were quantified by Excess Over Highest Single Agent (EOHSA) based on the concept of nonlinear blending as described in detail by Peterson and Novick (2007) and Peterson (2010) [(2;3) [Peterson and Novick, 2007; Peterson, 2010]. […] For single agent and combination treatments, cells were exposed to compounds at a fixed-dose-ratio, and dose response curves were fit to the experimental data and analyzed using regression models. At specified total dose levels of IC50 along the dose response curve, the dose combination (corresponding to IC50) was determined for making EOHSA statistical inferences.

Where [2] appears, read: 72 h, RKO colon, BRAF V600E, KRAS WT, PIK3CA H1047R, 3 days, mean ± std, read-out: IC50 values, Single Agent.
[3] abbreviates: RKO colon line, BRAF V600E and PIK3CA H1047R, single agent, read-out: IC50, compound alone.

Read-outs that look alike come from different tables or passages of the source.

In the case of `CC(C)(C)c1nc(-c2cccc(NS(=O)(=O)c3c(F)cccc3F)c2F)c(-c2ccnc(N)n2)s1` [Compound A, N-{3-[5-(2-Amino-4-pyrimidinyl)-2-(1,1-dimethylethyl)-1,3-thiazol-4-yl]-2-fluorophenyl}-2,6-difluorobenzenesulfonamide], the IC50 (in the experiment on HCT8; in the experiment with HCT15; in the experiment with LS1034; in the experiment with KM-12; in the experiment on T84; in experiment [1]) was greater than 10 µM each time. Moreover, the IC50 is greater than 10 µM in the experiment on EFM19; 4.2 ± 4.03 µM with RKO colon line (setting [2]); greater than 1 µM with RKO colon line (setting [3]); greater than 10 µM in the experiment with HCC2998; greater than 10 µM with SW480; greater than 10 µM in the experiment with SW837. Besides, the IC50 was greater than 10 µM with DLD1, greater than 10 µM in the experiment with MDA-MB-175VII, greater than 10 µM in the experiment with SW1463 and 0.013 ± 0.004 µM with Colo205. The “sensitivity to compound alone in words” value in the experiment on HT29 (HT29, BRAF V600E mutation line) was “highly sensitive”; in the experiment with Colo205 (Colo205, BRAF V600E mutation line) it was “highly sensitive”.

In the case of `Cn1ncc(Cl)c1-c1cc(C(=O)N[C@H](CN)Cc2cccc(F)c2)sc1Cl` [Compound B, N-{(1S)-2-amino-1-[(3-fluorophenyl)methyl]ethyl}-5-chloro-4-(4-chloro-1-methyl-1H-pyrazol-5-yl)-2-thiophenecarboxamide], the IC50 is 1.55 ± 0.051 µM in the experiment with HCT8; 1.43 ± 0.073 µM with HT29 (Homo sapiens, HT-29, 72 h, HT29 colon, BRAF V600E, KRAS WT, PIK3CA P449T, 3 days, mean ± std, read-out: IC50 values, Single Agent); 7.77 ± 1.69 µM in the experiment with HCT15; greater than 10 µM in the experiment with LS1034; 4.45 ± 4.2 µM in the experiment on KM-12; greater than 10 µM in the experiment with T84. Also, the IC50 with EFM19 was 0.444 ± 0.285 µM; with RKO colon line (setting [2]) it was 1.35 ± 0.614 µM; in the experiment on RKO colon line (setting [3]), greater than 1 µM; in the experiment with HCC2998 it was greater than 10 µM; in the experiment with SW480, 6.08 ± 0.154 µM; in the experiment on SW837 it was greater than 10 µM. Moreover, the IC50 was greater than 10 µM in the experiment with DLD1, 0.844 ± 0.033 µM in the experiment with MDA-MB-175VII, greater than 10 µM in the experiment on SW1463 and 3.29 ± 0.242 µM in the experiment with Colo205.

Values taken from patent publication US8796298B2, “Combination of a B-Raf inhibitor: N-{3-[5-(2-Amino-4-pyrimidinyl)-2-(1,1- dimethylethyl)-1,3-thiazol-4-yl]-2-fluorophenyl}-2,6-difluorobenzenesulfonamide and the Akt inhibitor: N-{ (1S)-2-amino-1-[(3- fluorophenyl)methyl]ethyl}-5-chIoro-4-(4-chIoro- 1 -methyl- 1 H-pyrazol-5-yl)-2-10 …” (GlaxoSmithKline LLC, priority 2009, dated 2014).
